“And” between values parts separate entries of the source, which are not always exact repeats. Identical values can stand only once. Like-named read-outs stand apart in the source and are kept apart here.
How the values were obtained:
[1] = tested on: human ventricular cardiac tissue strips (hvCTS); assay: hvCTS drug screening: twitch force under electrical pacing; type: cell-based; conditions: for IC50 / EC50: Homo sapiens; for IC50: read-out: IC50, developed contractile force
Protocol: One of ordinary skill in the art will recognize that the gels can be formed in any of a variety of sizes and shapes, and the molds used to form such gels can also be formed in any of a variety of sizes and shapes, depending on the intended use of the molded gel. The molded mixtures were then bathed with culture medium (DMEM supplemented with 10% newborn calf serum), and maintained in culture with daily half-medium exchanges. Inserts in the casting molds were removed at 48 hours, yielding a self-assembled hvCTS held between 0.5-mm-diameter circular PDMS posts at each end. It is apparent that the posts can be formed from any flexible material amenable to at least one form of sterilization are suitable. As noted above, the whole mold can be scaled up or down depending on the application, and the posts can also be scaled up or down. In general, the height of the posts would be similar to the height of a well (e.g., about 6 mm in an exemplary embodiment). Any of a wide variety of cross-sectional shapes is contemplated as being suitable for use in the system, apparatus and methods according to the disclosure. At 7 days after hvCTS creation, the hvCTS were used for drug screening.
Initially, pharmacological compounds were prepared for screening. Compounds for unblinded “open label” screening were purchased from Sigma and stock solutions at the highest possible concentrations were prepared according to the product information. Working concentrations over a 5-logarithmic range were prepared for each drug.
Working concentrations over a 5-logarithmic range were prepared for each drug according to the dose-range recommendation provided by the supplier.
New born calf serum containing medium was replaced with DMEM high glucose with HEPES without phenol red for optical measurement of generated force in hvCTS. […] The integrated flexible PDMS posts were used as force sensors, with the post deflection captured in real-time with a high-speed camera (100 frames/s) and LabView software (National Instruments, Austin, Tex., USA), applying a beam-bending equation from elasticity theory to calculate twitch force, as described previously^[2] and incorporated herein by reference. These measurements were obtained with the hvCTS maintained in the original molds where they were created with the hvCTS bathed in culture medium at 37° C. For each drug, force generated in response to 9 doses were measured with the drugs added to the hvCTS at half log increments in a cumulative manner. For each dose, the force generated at 0 Hz, 0.5 Hz, 1 Hz, 1.5 Hz and 2 Hz electrical pacing with field electrodes were measured.
Data analysis. Data were calculated and analyzed by a customized MatLab program. Force frequency curves for each drug were generated by plotting the generated force at 0.5 Hz, 1 Hz, 1.5 Hz and 2 Hz at different concentrations. All forces were normalized to the generated force at 0.5 Hz at the drug-free baseline condition (100%).
[…] The force generated under drug-free baseline condition was defined as 100%. The force generated at each drug concentration was then normalized to the generated force under the cognate drug-free baseline condition. The EC50 of each tested drug was estimated by fitting to a four-parameter dose-response equation given as: Y=Bottom+(Top-Bottom)/(1+10^((Log EC^50^−X)*HillSlope)), using commercial software (GraphPad Software Inc.). X is the logarithm of drug concentrations; […]; Top and Bottom are the Y values of the top and bottom plateaus of the curve itself; Baseline is the Y value that defines 0%—maximal inhibition by a standard drug. Hill Slope quantifies the steepness of the dose-response curve (the higher the Hill Slope, the steeper the curve).

[2] = tested on: isolated human atrial tissue; conditions: isolated human atrial tissue from cardiac bypass; ref [6]; cited from earlier work
[3] = cited from earlier work; for peak plasma concentration for improved ejection fraction and work product: ref [17]
[4] = tested on: human right atrial trabeculae; conditions: ref [21]; cited from earlier work
human atrial trabeculae = conditions: ref [13]; cited from earlier work
canine papillary muscle = conditions: ref [11]; cited from earlier work
rat atrial trabeculae = conditions: ref [14]; cited from earlier work
[5] = tested on: human atrial and ventricular cardiomyocytes; conditions: ref [8]; cited from earlier work
[6] = tested on: chick embryonic ventricular cells; conditions: ref [9]; cited from earlier work
[7] = 1 Hz pacing, blinded screening, Example 4
[8] = Blinded, 1 Hz pacing, read-out: -log EC50 in hvCTS (converted)
[9] = Blinded, 1 Hz pacing, read-out: EC50 in hvCTS (in brackets)
[10] = 1 Hz pacing, unblinded screening, Example 3, read-out: EC50, developed contractile force
[11] = Unblinded, 1 Hz pacing, read-out: -log EC50 in hvCTS (converted)
[12] = Unblinded, 1 Hz pacing, read-out: EC50 in hvCTS (in brackets)
[13] = 1 Hz pacing, unblinded screening, Example 3
[14] = 1 Hz pacing, blinded screening, Example 4, read-out: EC50, developed contractile force

CCOC(=O)[C@H](CCc1ccccc1)N[C@@H](C)C(=O)N1[C@H](C(=O)O)C[C@@H]2CCC[C@@H]21 [Ramipril]
effect on developed contractile force / contractility ([1]; blinded screening, Example 4): did not show any dose-dependent effect on contractility

CN(C)CCC=C1c2ccccc2CCc2ccccc21 [Amitriptyline]
30-60% effective concentration [2]: 40-400 μM [6], 30-60% effective concentration | IC50 [1, 7]: 450 µM | EC50 [1, 8]: 447 µM | EC50 [1, 9]: 450 µM | plasma concentration in psychiatric patients ([3]; ref [5]): 98-208 ng/mL and 0.35-0.74 μM

O=C(NCC1CCCCN1)c1cc(OCC(F)(F)F)ccc1OCC(F)(F)F (centres unmarked) [Flecainide]
IC50 [1, 7]: 15 µM | EC50 [1, 10]: 75 µM | EC50 [1, 8]: 15.1 µM | EC50 [1, 9]: 151 µM | EC50 [1, 11]: 75.9 µM | EC50 [1, 12]: 75 µM

COCC(=O)O[C@]1(CCN(C)CCCc2nc3ccccc3[nH]2)CCc2cc(F)ccc2[C@@H]1C(C)C [Mibefradil]
IC50 [1, 13]: 38 µM | EC50 [1, 11]: 3.16 µM | EC50 [1, 12]: 3.39 µM | IC50 [4]: 24.5 µM

C=C[C@H]1C[N@@]2CC[C@H]1C[C@@H]2[C@@H](O)c1ccnc2ccc(OC)cc12 [Quinidine]
IC50 [1, 7]: 200 µM | EC50 [1, 8]: 204 µM | EC50 [1, 9]: 200 µM | peak plasma concentration ([3]; at 495 mg, ref [26]): 2.07 μg/ml and 6.3 μM

NC[C@H](O)c1ccc(O)c(O)c1 [Norepinephrine]
EC50 [1, 14]: 0.35 µM | EC50 [1, 8]: 0.347 µM | EC50 [1, 9]: 0.35 µM | plasma level after epinephrine infusion ([3]; ref [24]): 267 pg/ml and 0.15 nM

COC(=O)C1=C(C)NC(C)=C(C(=O)OC)C1c1ccccc1[N+](=O)[O-] [Nifedipine]
plasma concentration in patients with ischemic heart disease ([3]; ref [23]): 29-73 ng/ml and 0.083-0.21 μM

CC(CCc1ccc(O)cc1)NCCc1ccc(O)c(O)c1 (centres unmarked) [Dobutamine]
EC50 [1, 14]: 0.25 µM | EC50 [1, 10]: 0.015 µM | EC50 [1, 8]: 0.245 µM | EC50 [1, 9]: 0.25 µM | EC50 [1, 11]: 0.0151 µM | EC50 [1, 12]: 0.015 µM | relevant concentration (human atrial trabeculae): 0.217 μM [13], human atrial trabeculae | peak plasma concentration with increased cardiac output ([3]; ref [12]): 147-152 ng/ml and 0.487-0.5 μM

C[C@H]1O[C@@H](O[C@H]2[C@@H](O)C[C@H](O[C@H]3[C@@H](O)C[C@H](O[C@H]4CC[C@@]5(C)[C@H](CC[C@@H]6[C@@H]5C[C@@H](O)[C@]5(C)[C@@H](C7=CC(=O)OC7)CC[C@]65O)C4)O[C@@H]3C)O[C@@H]2C)C[C@H](O)[C@@H]1O [Digoxin]
EC50 ([1]; read-out: -log EC50 in hvCTS (converted)): 3.63 µM | EC50 ([1]; read-out: EC50, developed contractile force): 3.7 µM | EC50 ([1]; read-out: EC50 in hvCTS (in brackets)): 3.65 µM | relevant concentration, increased pre-ejection period index ([3]; ref [10]): 1 ng/ml (1 nM) ([10], increased pre-ejection

Cc1[nH]c(=O)c(C#N)cc1-c1ccncc1 [Milrinone]
EC50 [1, 14]: 2.8 µM | EC50 [1, 10]: 0.41 µM | EC50 [1, 8]: 2.75 µM | EC50 [1, 9]: 2.77 µM | EC50 [1, 11]: 0.407 µM | EC50 [1, 12]: 0.41 µM

CCN(CC)CCNC(=O)c1ccc(N)cc1 [Procainamide]
EC50 of developed tension (canine papillary muscle): 7952 μg [11], EC50 of developed tension in canine

NCCCC[C@H](N[C@@H](CCc1ccccc1)C(=O)O)C(=O)N1CCC[C@H]1C(=O)O [Lisinopril]
effect on developed contractile force / contractility ([1]; blinded screening, Example 4): small increase in developed contractile force with increasing concentrations

NCCc1ccc(O)c(O)c1 [Dopamine]
relevant concentration (rat atrial trabeculae): 20 μM [14], in rat atrial trabeculae | effect on developed contractile force / contractility ([1]; blinded screening, Example 4): did not significantly affect the developed contractile force

CC(C)N(CCC(C(N)=O)(c1ccccc1)c1ccccn1)C(C)C (centres unmarked) [Disopyramide]
EC50 [1, 10]: 80 µM | EC50 [1, 11]: 81.3 µM | EC50 [1, 12]: 82.2 µM | EC50 of developed tension (canine papillary muscle): 824 μg [11], EC50 of developed tension in canine

COc1ccc(Cl)cc1C(=O)NCCc1ccc(S(=O)(=O)NC(=O)NC2CCCCC2)cc1 [Glibenclamide]
EC50 [1, 14]: 3.2 µM | EC50 [1, 10]: 0.93 µM | EC50 [1, 8]: 3.16 µM | EC50 [1, 9]: 3.17 µM | EC50 [1, 11]: 0.933 µM | EC50 [1, 12]: 0.93 µM | peak plasma concentration for improved ejection fraction and work product ([3]; after 5 mg oral administration): 479 ng/ml and 0.096 μM

C[C@@H]1CC(=O)NN=C1c1ccc(NN=C(C#N)C#N)cc1 [Levosimendan]
EC50 [1, 10]: 0.15 µM | EC50 [1, 11]: 0.145 µM | EC50 [1, 12]: 0.15 µM | relevant concentration (human atrial trabeculae): 0.19 μM [13], human atrial trabeculae

CC(C)COCC(CN(Cc1ccccc1)c1ccccc1)N1CCCC1 (centres unmarked) [Bepridil]
IC50 [1, 13]: 3.3 µM | EC50 [1, 11]: 38 µM | EC50 [1, 12]: 37.9 µM | relevant concentration [5]: 100 μM [8], human atrial and ventricular

CC(=O)Oc1ccccc1C(=O)O [Aspirin]
effect on developed contractile force / contractility ([1]; blinded screening, Example 4): did not show any dose-dependent effect on contractility

Cc1cccc(C)c1NC(=O)C(C)N (centres unmarked) [Tocainide]
effect on developed contractile force ([1]; all concentrations and pacing frequencies, unblinded screening, Example 3): did not show any effect on developed contractile force | effect on developed contractile force ([1]; all tested pacing frequencies, Example 2 / FIG. 2): no dose-dependent effect on contractile force | effect on developed contractile force ([1]; all tested pacing frequencies, Example 2 / FIG. 2, listed as tocainide): No consistent change in developed contractile force | EC50 of developed tension (canine papillary muscle): 1212 μg [11], EC50 of developed tension in canine

CCCCNC(=O)NS(=O)(=O)c1ccc(C)cc1 [Tolbutamide]
effect on developed contractile force / contractility ([1]; blinded screening, Example 4): did not show any dose-dependent effect on contractility | peak plasma concentration for improved ejection fraction and work product ([3]; after 1250 mg oral administration): 63.5 μg/ml and 230 μM

Cn1c(=O)c2c(ncn2C)n(C)c1=O [Caffeine]
EC50 [1, 14]: 0.29 µM | EC50 [1, 8]: 0.288 µM | EC50 [1, 9]: 0.287 µM | relevant concentration [6]: 20 mM [9], in chick embryonic ventricular cells

Reference: patent publication US20200369996A1, “Bioreactor Screening Platform for Modelling Human Systems Biology and for Screening for Inotropic Effects of Agents on the Heart” (NOVOHEART LIMITED, priority 2017, published 2020)
